Assay results taken from patent US9975860B2, “Anti-angiogenic compounds” (UNIVERSITY COLLEGE DUBLIN—NATIONAL UNIVERSITY OF IRELAND, …, priority 2014, dated 2018).
“Also recorded” adds a separate entry of the source.

Assays:
PAI-1 = assay: Multiplex ELISA of HMEC media: PAI-1; assay type: cell-based, human; settings: compound-treated HMECs, 16 hours
Description: (§1) Dermal-derived Human Microvascular Endothelial Cells (HMEC) were maintained at 37° C./5% CO2 in MCDB-131 medium (Gibco/cat: 10372) supplemented with 10% FCS, L-Glutamine (Gibco/cat: 25030-032), 1 μl/ml Hydrocortisone (Sigma/cat: H0396), 10 ng/ml EGF (BD Biosciences 354001) and 1% Pen-Strep (Gibco/cat: 151040-148). The wells of a μ-slide angiogenesis plate (IBIDI Cat no: 81506) were coated with a layer of matrigel matrix (BD 356234) which was left to polymerize for 45 minutes at 37° C. HMECs were grown to 80% confluence, washed with DPBS (Invitrogen) and trypsinised using 2 ml TrypLE™ Express (1×) (Invitrogen). Cells were centrifuged following flask detachment at 1200 rpm for 4 minutes. The cell pellet was resuspended in 3 ml full media and a cell count was performed using a haemocytometer. 7.5×10^3 cells were pipetted into each matrigel coated well of the μ-slide angiogenesis plate and treated with either 0.1% DMSO or 1, 3.16 or 10 μM compound 4 or compound 18. The slide was kept at 37° C./5% CO2 during cell tube formation. After 16 hours, 50 μl of media was removed from each of the Ibidi wells and 25 μl of the media was run in each well of a Meso Scale Discovery (MD, USA) custom multiplex ELISA containing the following analytes: Ang-1, Ang-2, VEGF, bFGF, PAI-1, sICAM and sVCAM. The ELISA was run as per manufacturer's instructions.

Ang-1 = assay: Multiplex ELISA of HMEC media: Ang-1; assay type: cell-based, human; settings: compound-treated HMECs, 16 hours
Description: as §1

sICAM-1 = assay: Multiplex ELISA of HMEC media: sICAM-1; assay type: cell-based, human; settings: compound-treated HMECs, 16 hours
Description: as §1

sVCAM-1 = assay: Multiplex ELISA of HMEC media: sVCAM-1; assay type: cell-based, human; settings: compound-treated HMECs, 16 hours
Description: as §1

Ang-2 = assay: Multiplex ELISA of HMEC media: Ang-2; assay type: cell-based, human; settings: compound-treated HMECs, 16 hours
Description: as §1

VEGF = assay: Multiplex ELISA of HMEC media: VEGF; assay type: cell-based, human; settings: compound-treated HMECs, 16 hours
Description: as §1

human HT29-Luc2 cells = assay: Clonogenic assay of cell viability in HT29-Luc2; assay type: cell-based; settings: 10 μM, 24-96 hours
Description: HT29-Luc2 CRC cells were maintained using McCoy's 5A (Gibco 36600-088) medium supplemented with 10% FBS (Gibco 10270-106) at 37° C./5% CO2. Cells were washed in DPBS and trypsinised using 2 ml TrypLE™ Express (1×) (Invitrogen). Cells were centrifuged following detachment at 1200 rpm for 4 minutes. The cell pellet was resuspended in full media and a cell count was performed using a haemocytometer. 1.5×10^3 cells were seeded per well of a 6 well plate and left to adhere for 24 hours. Cells were then treated with 10 μM of compound 4 or 18 for 24 hours. The drugs were then removed and cells were allowed to grow in fresh media for 10 days in total, clones were then fixed using 4% paraformaldehyde and stained by incubating with 0.5% crystal violet solution (Pro-Lab diagnostics PL.7000) at RT for 2 hours. Clones counting was performed using the ColCount™ system (Oxford Optronix).

[1] = tested on: human retinal (ARPE-19) cells; assay: MTT cell viability assay in ARPE-19; assay type: cell-based; settings: 5, 10, 25, 50, 75 or 90 μM, 96 hours
Description: A 3-(4,5-dimethylthiozol-2-yl)-2,5-diphenyltetrazolium bromide (MTT) dye reduction assay was carried out to determine the cytotoxicity of each compound on either human microvascular endothelial cells (HMECs) or human retinal pigmented epithelium cells (ARPE-19). Cells were maintained in a 95% air and 5% CO2 atmosphere at 37° C. in Dulbecco modified Eagle medium (DMEM, Sigma Aldrich) with 10% fetal bovine serum, 2 mM Gibco® L-glutamine and 100 units/ml penicillin, 1 mg/ml streptomycin (Invitrogen) supplementation. On day 1, cells were trypsinized (Trypsin-EDTA 1×) and seeded 1.4×10^4 cells per well of a 96 well plate and incubated overnight. On day 2, cells were serum staved in DMEM with L-glutamine and penicillin-streptomycin supplementation for 24 h. On day 3, cells were drug treated for 24 h (HMECs) or 96 h (ARPE-19 cells) with 0.1% DMSO or 10 μM to 90 μM of each compound 4, 8, 15, 18 or 20, with 4 replicate wells of each compound. After 24-96 h, cells were incubated with […] 5 mg/ml MTT labelling Reagent (Roche) for 2 h. Subsequently, when purple formazan crystals formed cells were incubated with 1× solubilisation solution (Roche) for 4 h and absorbance read at 570 nm using a microplate reader.

[2] = tested on: intersegmental vasculature in zebrafish; assay: Quantification of intersegmental vessel number in zebrafish; assay type: in vivo; settings: 10 μM; zebrafish embryos treated 6 hpf to 48 hpf
Description: At 6 hours post fertilisation, 5 embryos per well were placed in 400 μL of embryo medium/0.1% DMSO and incubated with 10 μM compound at 28° C. on a 14 h light/10 h dark cycle. At 48 hpf larvae were manually dechorionated, euthanised, and fixed in 4% PFA at 4° C. overnight before analysis. The larvae were then washed with PBS and transferred to depression slides for observation under epi-fluorescence in an Olympus SZX16 fluorescent microscope. The number of intersegmental vessels was counted and the average number was graphed for each drug.
All experimental protocols were carried out as per example 1 and 2. Briefly, zebrafish larvae were treated with 10 μM of AT-051/41206012 (chemical name 2-[2-(2-methoxyphenyl)ethenyl]pyrazine) purchased from Specs (The Netherlands). At 6 or 48 hours post fertilisation (hpf), 5 embryos per well were placed in 400 μl of Embryo Medium/0.1% DMSO and incubated with 10 μM AT-051/41206012 at 28° C. on a 14 h light/10 h dark cycle. Larvae were treated from 6-48 hpf (intersegmental vessel study) or from 48 to 120 hpf (primary hyaloid vessel study). At the end of the study, larvae were euthanized and fixed in 4% PFA at 4° C. overnight before analysis.
The number of intersegmental vessels was counted and the average number was graphed for each drug. Right lenses were dissected from the larvae and transferred to depression slides for observation and the number of primary hyaloid vessels radiating from the back of the lens (3-4 main branches at 5 dpf in controls and previously described), was counted and the average number was graphed for each drug.

bFGF = assay: Multiplex ELISA of HMEC media: bFGF; assay type: cell-based, human; settings: compound-treated HMECs, 16 hours
Description: as §1

SMILES | expression of PAI-1 (PAI-1; hydrochloride) | expression of Ang-1 (Ang-1) | expression of sICAM-1 (sICAM-1) | expression of sVCAM-1 (sVCAM-1) | expression of Ang-2 (Ang-2; hydrochloride) | expression of VEGF (VEGF) | cell viability in a clonogenic assay (human HT29-Luc2 cells) | cell viability (MTT assay) [1] | inhibition of developmental angiogenesis of intersegmental vessels (number of intersegmental vessels) [2] | expression of bFGF (bFGF) | expression of PAI-1 (PAI-1) | expression of Ang-2 (Ang-2)
Cl.Oc1ccccc1/C=C/c1cnccn1 [Compound 4, (E)-2-[2-(Pyrazin-2-yl)vinyl]phenol hydrochloride] | significantly reduce; also recorded: reduce expression of Ang-2 and PAI-1 in human endothelial microvascular cells in a statistically significant manner | not significantly different to control-treated HMECs | not significantly different to control-treated HMECs | not significantly different to control-treated HMECs | significantly reduce; also recorded: reduce expression of Ang-2 and PAI-1 in human endothelial microvascular cells in a statistically significant manner | not significantly different to control-treated HMECs | does not affect cell viability | does not affect cell viability | inhibit developmental angiogenesis of zebrafish intersegmental vessels in a statistically significant manner | not significantly different to control-treated HMECs | – | –
Oc1ccccc1C#Cc1cnccn1 [Compound 18, 2-[2-(Pyrazin-2-yl)ethynyl]phenol] | – | not significantly different to control-treated HMECs | not significantly different to control-treated HMECs | not significantly different to control-treated HMECs | – | not significantly different to control-treated HMECs | does not affect cell viability | does not affect cell viability | inhibit developmental angiogenesis of zebrafish intersegmental vessels in a statistically significant manner | not significantly different to control-treated HMECs | significantly reduce; also recorded: reduce expression of Ang-2 and PAI-1 in human endothelial microvascular cells in a statistically significant manner | significantly reduce; also recorded: reduce expression of Ang-2 and PAI-1 in human endothelial microvascular cells in a statistically significant manner
